Assay results published in patent US20240124387A1, “ACID RECOVERY” (GREENCOVERY B.V., priority 2021, published 2024).
Marks after values point to notes of the source that are not given here.

Assays:
[1] = Precipitation stage: eluate (desorption) samples sparged with CO2, acid quantified again; assay type: physicochemical; conditions: for reduction of organic acid concentration in solution after sparging with CO2: desorption samples of Example 1 (90 wt. % ethanol, 1M KOH); for reduction of amino acid concentration in solution (in the eluate) after CO2 sparging: eluate samples with highest amino acid content, 0.425 M KOH in 93.5 wt. % ethanol
Protocol: In the precipitation stage, the desorption samples were sparged with CO2, and the organic acids were quantified again the precipitation stage.
The eluate was separated into four samples of 7.5 mL each.

[2] = Precipitation with CO2 in solutions containing different amino acids, ethanol and water (table 3); assay type: physicochemical; conditions: for Concentration of amino acid in the liquid, Before precipitation / Concentration of amino acid in the liquid, After precipitation / Precipitate: 0.5M NaOH; for Concentration of amino acid in the liquid, After precipitation / Precipitate: after CO2; for Precipitate: includes sodium (bi)carbonate; for share of the amino acid precipitated when providing CO2: 80 wt. % ethanol
Source text: A variety of eluates, comprising different amino acids, and solvent concentrations were subjected to the precipitation stage as summarized in table 3: […]

[3] = 20 wt. % water, 80% wt. % ethanol
[4] = 37.6 wt. % water, 62.4 wt. % ethanol
[5] = second 7.5 mL eluate sample, 90 wt. % methanol, 0.85M KOH
[6] = 50 wt. % water, 50 wt. % ethanol

Structure (SMILES)	reduction of organic acid concentration in solution after sparging with CO2 [1]	reduction of glutamic acid concentration in solution after CO2 sparging ([1]; 0.85 M KOH in 90 wt. % ethanol (AA4))	reduction of glutamic acid concentration in solution after CO2 sparging ([1]; 1M NaOH in 62.4 wt. % ethanol (AA5))	reduction of amino acid concentration in solution (in the eluate) after CO2 sparging [1]	Concentration of amino acid in the liquid, Before precipitation [2, 3]	Concentration of amino acid in the liquid, After precipitation [2, 3] [µg/mL]	Precipitate [2, 3] [g/L]	Concentration of amino acid in the liquid, Before precipitation [2, 4] [g/L]	Concentration of amino acid in the liquid, After precipitation [2, 4] [µg/mL]	Precipitate [2, 4] [g/L]	concentration in eluate sample after CO2 sparging [1, 5] [µg/mL]	concentration in eluate sample before CO2 sparging [1, 5] [µg/mL]	Concentration of amino acid in the liquid, Before precipitation [2, 6] [g/L]	Concentration of amino acid in the liquid, After precipitation [2, 6] [µg/mL]	Precipitate [2, 6] [g/L]	behaviour of the amino acid when providing CO2 ([2]; 50 wt. % ethanol)	behaviour of the amino acid when providing CO2 ([2]; 62.4% ethanol)	share of the amino acid precipitated when providing CO2 [2]
CC(O)C(=O)O (stereo not drawn) [lactate, lactic acid]	(essentially) no reduction	–	–	–	–	–	–	–	–	–	–	–	–	–	–	–	–	–
N[C@@H](CCC(=O)O)C(=O)O [Glutamic acid]	–	approximately 74%	approximately 90%	approximately 68%	10.1* g/L	700	33.7	10.1	4800	30.5	–	–	–	–	–	–	–	–
CCCCCC(=O)O [caproate, caproic acid]	(essentially) no reduction	–	–	–	–	–	–	–	–	–	–	–	–	–	–	–	–	–
C[C@H](N)C(=O)O [alanine, L-alanine]	–	–	–	~31%	–	–	–	–	–	–	–	–	–	–	–	–	–	–
CC(=O)O [acetate]	–	–	–	–	–	–	–	–	–	–	24300	24600	–	–	–	–	–	–
NCCCC[C@H](N)C(=O)O [Lysine]	–	–	–	–	10.3 g/L	3400	32.5	10.4	10300	22.0	–	–	10.3	10600	25.9	–	–	–
N[C@@H](CCC(=O)[O-])C(=O)[O-].[Na+].[Na+] [Sodium glutamate]	–	–	–	–	10.1* g/L	800	35.5	10.1	4300	34.1	–	–	10.1	10800	17.5	remained in solution	partially precipitated	over 90%
CC(C)C[C@H](N)C(=O)O [Leucine, L-leucine]	–	–	–	> 99%	10.3 g/L	9100	20.7	9.6	9700	18.1	–	–	10.2	10200	12.6	remained in solution	remained in solution	less than 10%
CSCC[C@H](N)C(=O)O [Methionine]	–	–	–	–	10.2 g/L	4100	27.4	10.2	9600	21.2	–	–	10.3	9600	15.2	–	–	–
N[C@@H](Cc1ccccc1)C(=O)O [Phenylalanine]	–	–	–	–	10.3 g/L	3600	27.4	10.2	9100	20.6	–	–	10.3	10300	16.9	–	–	–
